{"source": "patent US7220775B2", "about": "“Compound useful for the treatment of neuropathic pain” (H. Lundbeck A/S, priority 2002, dated 2007)", "key": {"[1]": {"target": "T1, DA transporter (rDA Uptk) (Rattus norvegicus, UniProt P23977)", "T1 construct": "native, tissue-derived transporters; from tissue", "T1 sequence (P23977 whole entry)": "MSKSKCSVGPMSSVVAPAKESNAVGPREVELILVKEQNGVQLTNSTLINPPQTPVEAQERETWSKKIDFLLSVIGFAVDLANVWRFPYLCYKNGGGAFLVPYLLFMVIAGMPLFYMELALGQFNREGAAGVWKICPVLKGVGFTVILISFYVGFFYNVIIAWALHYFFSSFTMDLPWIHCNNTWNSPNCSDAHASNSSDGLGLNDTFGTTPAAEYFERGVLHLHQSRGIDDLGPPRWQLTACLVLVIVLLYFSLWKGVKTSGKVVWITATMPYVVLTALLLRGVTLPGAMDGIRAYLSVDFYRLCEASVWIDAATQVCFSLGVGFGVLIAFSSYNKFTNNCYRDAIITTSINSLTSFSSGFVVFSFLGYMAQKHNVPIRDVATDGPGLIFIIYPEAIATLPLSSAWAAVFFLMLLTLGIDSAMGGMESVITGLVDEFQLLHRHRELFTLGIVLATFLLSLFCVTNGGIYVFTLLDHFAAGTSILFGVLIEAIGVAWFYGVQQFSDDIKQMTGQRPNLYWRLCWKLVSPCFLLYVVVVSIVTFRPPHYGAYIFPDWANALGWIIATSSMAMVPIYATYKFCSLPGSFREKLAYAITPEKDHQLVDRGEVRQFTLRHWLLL", "assay": "Binding at native DA transporter", "details": "Table 8", "experimental": "(§1) The binding properties of the compounds of the present invention were evaluated at one or more cloned receptors or native, tissue-derived transporters, using protocols described below.\n(§2) The methods to determine binding affinity at native transporters are described in the following publications: 5HT transporter and NE transporter (Owens et al., 1997), and DA transporter (Javitch et al, 1984)."}, "[2]": {"target": "T2, human dopamine D4 receptor (Homo sapiens, UniProt P21917)", "T2 construct": "purchased BioSignal, Inc. (Montreal, Canada)", "T2 sequence (P21917 whole entry)": "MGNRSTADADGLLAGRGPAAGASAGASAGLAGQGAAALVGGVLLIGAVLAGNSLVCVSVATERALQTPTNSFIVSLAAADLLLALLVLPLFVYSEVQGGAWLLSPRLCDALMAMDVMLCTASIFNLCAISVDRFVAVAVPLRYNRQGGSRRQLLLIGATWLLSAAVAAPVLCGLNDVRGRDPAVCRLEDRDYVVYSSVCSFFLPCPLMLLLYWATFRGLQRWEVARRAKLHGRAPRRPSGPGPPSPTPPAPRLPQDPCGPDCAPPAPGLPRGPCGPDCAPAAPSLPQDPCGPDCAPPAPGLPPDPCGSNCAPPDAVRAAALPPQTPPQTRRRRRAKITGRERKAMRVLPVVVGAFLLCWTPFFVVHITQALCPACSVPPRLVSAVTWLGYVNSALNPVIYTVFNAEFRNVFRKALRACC", "assay": "Dopamine D4 receptor binding", "details": "Table 10", "description": "(§3) Other receptors: Cell membranes expressing human dopamine D1, D2, D4 and rat D3 receptors were purchased through BioSignal, Inc. (Montreal, Canada). Binding assays using the histamine H, receptor; dopamine receptors; and α1A, α1B, and α2 adrenergic receptors may be carried out according to the procedures described in U.S. Pat. No. 5,780,485, the disclosure of which is hereby incorporated by reference in its entirety into this application. Binding assays using the dopamine D5 receptor may be carried out according to the procedures described in U.S. Pat. No. 5,882,855, the disclosure of which is hereby incorporated by reference in its entirety into this application. Binding assays for the human α1D adrenergic receptor may be carried out according to the procedures described in U.S. Pat. No. 6,156,518, the disclosure of which is hereby incorporated by reference in its entirety into this application."}, "human α2A adrenoceptor": {"target": "T3, human α2A adrenoceptor (Homo sapiens, UniProt P08913)", "T3 construct": "expressed in transfected cells", "T3 sequence (P08913 whole entry)": "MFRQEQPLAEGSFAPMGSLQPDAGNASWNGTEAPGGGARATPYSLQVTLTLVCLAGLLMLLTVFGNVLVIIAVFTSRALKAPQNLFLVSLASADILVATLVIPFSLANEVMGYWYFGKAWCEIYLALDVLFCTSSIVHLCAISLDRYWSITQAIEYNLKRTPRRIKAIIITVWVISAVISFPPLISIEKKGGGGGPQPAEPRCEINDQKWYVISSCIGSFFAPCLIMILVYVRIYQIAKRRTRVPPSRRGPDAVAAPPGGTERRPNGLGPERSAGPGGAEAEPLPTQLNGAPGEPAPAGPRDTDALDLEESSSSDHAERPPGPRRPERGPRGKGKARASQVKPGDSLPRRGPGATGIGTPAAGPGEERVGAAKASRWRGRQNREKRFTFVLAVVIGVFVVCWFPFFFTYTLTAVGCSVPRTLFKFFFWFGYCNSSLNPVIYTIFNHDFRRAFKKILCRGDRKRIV", "assay": "α2A adrenergic receptor binding", "details": "Table 10", "description": "as §3"}, "[3]": {"tested_on": "neuropathic rats (chronic constriction nerve injury)", "assay": "Chronic constriction nerve injury model of neuropathic pain: mechanical allodynia (Von Frey filaments)", "type": "in vivo, rat", "details": "for effect on withdrawal threshold of the nerve-injured hind paw (Von Frey) vs vehicle / withdrawal threshold of the nerve-injured paw to Von Frey filament challenges: 30 mg/kg i.p.; for withdrawal threshold of the nerve-injured paw to Von Frey filament challenges: Day 12 PO", "experimental": "The aim of this study was to assess the potential analgesic effects of Example 92 following intraperitoneal administration at the doses of 3, 10 and 30 mg/kg, respectively, in an animal model of neuropathic pain. A peripheral mononeuropathy was induced in the right hind limb of rats following a chronic constriction nerve injury (Bennett and Xie, 1988), and the development of mechanical allodynia and thermal hyperalgesia was monitored using established behavioral tests (Attal, N., et al., 1990; Hargreaves, K., et al., 1988).\nMale Sprague-Dawley rats within the weight range of 200-225 g, and approximate age 7-9 weeks, were allowed to acclimate for a minimum of 6 days prior to the start of the behavioral testing.\nAll rats underwent a chronic constriction nerve injury, and of these, those that successfully developed allodynia and hyperalgesia were allocated to treatment groups.\nThere were 5 separate treatment groups (with a minimum of 10 rats per group). The treatment groups were as follows: • Group C received Morphine at 10 mg/kg (n=10) • Group D received Vehicle for Example 92* at 1 ml/kg (n=10) (* 100% DMSO) • Group E received Example 92 at 30 mg/kg (n=10) • Group F received Example 92 at 3 mg/kg (n=10) • Group G received Example 92 at 10 mg/kg (n=10)\nThe dose volume for all treatments was 1 ml/kg. Each rat received a single i.p. dose of the test substance, reference substance or vehicle on Day 12 PO. Test substance and vehicle dosing solutions were encoded (C-G) so that the observers were unaware of the identity of the treatment groups.\nThe behavioral tests (Von Frey filament and Thermal Plantar Tests—see below) were performed on all rats on 3 separate days prior to […], to establish baseline values. The pre-surgery baseline values were calculated as the mean of the last 2 days testing (the data from the first day of testing were not included as this was classed as part of the acclimating period). The sequence of tests was always mechanical allodynia (Von Frey Test) followed by thermal hyperalgesia (Thermal Plantar Test), with a minimum 5 min period allowed between the 2 tests.\nEach animal was placed in a wire mesh cage and a series of Von Frey filaments (ranging from filament handle number 3.61 to 6.10) applied to the plantar surface of the hind paw, from below. The filaments were applied in ascending order (starting with the weakest force) and the withdrawal threshold for both the ipsilateral and contralateral hind paws was evaluated. Each filament was indented on the plantar surface of the foot to the point where it just started to bend, and this was repeated approximately 8-10 times per filament at a frequency of approximately 1 Hz. The withdrawal threshold was defined as the lowest force of two or more consecutive Von Frey filaments to elicit a reflex withdrawal response.\nThe animals were surgically prepared over 5 days. Each rat was anaesthetized with sodium pentobarbitone (60 mg/ml; 0.6 ml/kg dose, intraperitonealy; batch number 00230; expiry date 22 May 3) and then supplemented as necessary with isoflurane (1-3% in oxygen). The surface around the incision site was shaved and then sterilized with surgical spirit. Under aseptic conditions the right sciatic nerve was exposed by blunt dissection at mid-thigh level and approximately 1 cm of nerve was freed of adhering connective tissue. Four chromic cat gut (4.0) ligatures, spaced at approximately 1 mm inzervals, were then tied so as to barely constrict the nerve (as viewed under 40× magnification) to induce a peripheral mononeuropathy in the right hind limb. The overlying muscle and skin were then closed in layers using suture material, and the anesthesia discontinued. On recovery from anesthesia, the rats were re-housed with their cage mates on soft padded bedding overnight (to reduce the risk of infection) and subsequently on sawdust bedding following full recovery. The animals were allowed 4 full days to recover before the behavioral testing was recommenced. […]"}, "[4]": {"tested_on": "NE transporter (rNE Uptk)", "assay": "Binding at native NE transporter", "design": "species or system rat", "details": "Table 8", "experimental": "as §1, §2"}, "[5]": {"target": "NE transporter (rNE Uptk) (Rattus norvegicus, UniProt Q9WTR4)", "assay": "Binding at native NE transporter", "details": "Table 7, native transporter", "experimental": "as §1, §2"}, "[6]": {"target": "T4, human dopamine D2 receptor (Homo sapiens, UniProt P14416)", "T4 construct": "purchased BioSignal, Inc. (Montreal, Canada)", "T4 sequence (P14416 whole entry)": "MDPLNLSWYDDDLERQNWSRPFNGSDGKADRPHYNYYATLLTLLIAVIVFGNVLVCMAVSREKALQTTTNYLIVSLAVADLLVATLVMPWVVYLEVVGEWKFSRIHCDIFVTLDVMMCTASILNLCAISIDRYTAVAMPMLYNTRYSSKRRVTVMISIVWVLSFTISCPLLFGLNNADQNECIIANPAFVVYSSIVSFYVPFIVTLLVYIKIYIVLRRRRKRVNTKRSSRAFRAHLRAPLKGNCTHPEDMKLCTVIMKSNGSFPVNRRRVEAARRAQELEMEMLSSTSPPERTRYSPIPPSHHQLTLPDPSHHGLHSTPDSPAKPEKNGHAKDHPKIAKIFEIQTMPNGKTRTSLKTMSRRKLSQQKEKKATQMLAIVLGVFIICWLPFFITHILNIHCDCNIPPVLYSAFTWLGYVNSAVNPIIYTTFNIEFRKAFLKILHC", "assay": "Dopamine D2 receptor binding", "details": "Table 10", "description": "as §3"}, "rat D3 receptor": {"target": "T5, rat D3 receptor (Rattus norvegicus, UniProt P19020)", "T5 construct": "purchased BioSignal, Inc. (Montreal, Canada)", "T5 sequence (P19020 whole entry)": "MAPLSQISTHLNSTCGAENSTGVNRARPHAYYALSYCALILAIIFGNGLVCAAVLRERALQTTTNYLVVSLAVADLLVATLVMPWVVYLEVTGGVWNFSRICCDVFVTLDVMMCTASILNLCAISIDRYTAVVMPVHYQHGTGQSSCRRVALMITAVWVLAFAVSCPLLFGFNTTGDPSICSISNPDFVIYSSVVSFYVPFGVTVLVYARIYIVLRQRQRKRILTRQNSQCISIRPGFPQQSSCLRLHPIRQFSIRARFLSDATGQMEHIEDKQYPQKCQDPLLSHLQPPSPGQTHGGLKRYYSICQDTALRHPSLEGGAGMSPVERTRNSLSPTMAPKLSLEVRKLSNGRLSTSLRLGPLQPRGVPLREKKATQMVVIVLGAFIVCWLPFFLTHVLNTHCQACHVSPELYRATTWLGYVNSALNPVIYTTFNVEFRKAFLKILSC", "assay": "Dopamine D3 receptor binding", "details": "Table 10", "description": "as §3"}}, "data": [{"compound": "O=C1C(=Nc2cccc(C(F)(F)F)c2)c2ccccc2N1c1ccccc1", "note": "[Example 92, 1-PHENYL-3-[[3-(TRIFLUOROMETHYL)PHENYL]IMINO]-1,3-DIHYDRO-2H-INDOL-2-ONE]", "values": [{"measurement": "selectivity ratio rDA Uptk (Ki rDA Uptk / Ki hGAL3)", "setting": "[1]", "result": ">100"}, {"measurement": "selectivity ratio hD4 (Ki hD4 / Ki hGAL3)", "setting": "[2]", "result": ">100"}, {"measurement": "selectivity ratio hα2A (Ki hα2A / Ki hGAL3)", "setting": "human α2A adrenoceptor", "result": ">100"}, {"measurement": "effect on withdrawal threshold of the nerve-injured hind paw (Von Frey) vs vehicle", "setting": "[3]; 30 min PD", "result": "significantly increased"}, {"measurement": "withdrawal threshold of the nerve-injured paw to Von Frey filament challenges", "setting": "[3]; 30 min PD, vehicle 4.82±2.77 g, P≦0.05", "result": "25.98 ± 8.25", "unit": "g"}, {"measurement": "effect on withdrawal threshold of the nerve-injured hind paw (Von Frey) vs vehicle", "setting": "[3]; 90 min PD", "result": "not found to be significant"}, {"measurement": "withdrawal threshold of the nerve-injured paw to Von Frey filament challenges", "setting": "[3]; 90 min PD, vehicle 2.43±1.48 g", "result": "11.73 ± 6.43", "unit": "g"}, {"measurement": "responses of the uninjured (contralateral) left paw (Von Frey) vs vehicle", "setting": "[3]; 3, 10, 30 mg/kg i.p., any time point", "result": "No significant changes"}, {"measurement": "effect on withdrawal threshold of the nerve-injured paw (Von Frey) vs vehicle", "setting": "[3]; 3 or 10 mg/kg i.p., any time point", "result": "no significant effect"}, {"measurement": "selectivity ratio rNE Uptk (Ki rNE Uptk / Ki hGAL3)", "setting": "[4]", "result": ">100"}, {"measurement": "Ki", "setting": "[5]", "result": 33.9, "unit": "µM"}, {"measurement": "selectivity ratio hD2 (Ki hD2 / Ki hGAL3)", "setting": "[6]", "result": ">100"}, {"measurement": "selectivity ratio rD3 (Ki rD3 / Ki hGAL3)", "setting": "rat D3 receptor", "result": ">100"}]}]}
